According to patent EP0414533A1, “Use of iodopropargyl esters of alpha-amino acid derivatives as antimicrobial agents” (ROHM AND HAAS COMPANY, priority 1989, dated 1991):
Structures can show the parent of a compound that is named as a salt. Where two headings read alike, the source gives them in different places.

What was measured:
[1] = test system: Aspergillus niger (ANIG); assay: Minimum inhibitory concentration (MIC), broth two-fold serial dilution test; assay type: cell-based; conditions: Aspergillus niger, read-out: MIC (F) ANIG, M9G (minimal salts media with glucose); Table IIIc, iodopropargyl esters of peptides
[2] = test system: ALT; assay: In-vitro plant fungicide test; assay type: cell-based; parameters: inhibition of growth: concentration or dose not given beside the values; conditions: Table IVb, read-out: % Control at (ppm) indicated ALT
[3] = test system: Botrytis cinerea (BOC); assay: In-vitro plant fungicide test; assay type: cell-based; conditions: Botrytis cinerea
[4] = test system: COL; assay: In-vitro plant fungicide test; assay type: cell-based; parameters: inhibition of growth: concentration or dose not given beside the values; conditions: Table IVb, read-out: % Control at (ppm) indicated COL
[5] = test system: MON; assay: In-vitro plant fungicide test; assay type: cell-based; conditions: Table IVb, read-out: % Control at (ppm) indicated MON
[6] = test system: Piricularia oryzae (PIR); assay: microbe, parasite or virus in culture; assay type: cell-based
[7] = test system: PSH; assay: In-vitro plant fungicide test; assay type: cell-based; conditions: Table IVb, read-out: % Control at (ppm) indicated PSH
[8] = test system: Pythium ultimum (PYU); assay: In-vitro plant fungicide test; assay type: cell-based; conditions: Globisporangium ultimum
[9] = test system: Septoria nodorum (SEP); assay: In-vitro plant fungicide test; assay type: cell-based; conditions: Parastagonospora nodorum
[10] = test system: Xanthomonas campestris (XAN); assay: In-vitro plant fungicide test; assay type: cell-based; parameters: inhibition of growth: concentration or dose not given beside the values; conditions: Xanthomonas campestris
[11] = test system: THREE FUNGI; assay: MIC test against three fungi in Mycophile Broth, pH 5.0, read after 8 days (Table VII); assay type: cell-based; conditions: 192 h
[12] = test system: Escherichia coli (ECOL); assay: Minimum inhibitory concentration (MIC), broth two-fold serial dilution test; conditions: Escherichia coli, read-out: MIC (G-) ECOL, M9G (minimal salts media with glucose); Table IIIc, iodopropargyl esters of peptides
[13] = test system: Staphylococcus aureus (SAUR); assay: as above; conditions: Staphylococcus aureus, read-out: MIC (G+) SAUR, M9G (minimal salts media with glucose); Table IIIc, iodopropargyl esters of peptides
Excerpt: When the test is ready to be done, each vessel in the dilution series, except the first vessel, contains an equal volume of compound free broth. The first vessel contains twice the volume of broth with the starting concentration of test compound. One half of the broth from the first vessel is transferred to the second vessel. After being mixed, one half the resulting volume is removed from the second vessel and transferred to the third vessel. The entire cycle is repeated sufficiently to give a series of concentrations amounting to 500, 250, 125, 63, 31, 16, 8, and 4 ppm (or 100, 50, 25, 12.5, 6.2, 3.1, 1.6, and 0.8), respectively.
Each vessel is then inoculated with a cell suspension of the appropriate test organism. Bacteria are grown in broth, fungi on agar slants for a time and at a temperature appropriate to the species being tested, and algae are a mixture of green algae and blue-green bacteria grown in a nutrient media. At the end of the growth period, in the case of bacteria, the broth is vortexed to disperse the cells.
The vessels are then incubated at the appropriate temperature. After the incubation, the vessels are examined for growth/no growth.

[14] = Table IVb, read-out: % Control at (ppm) indicated XAN

Compound: C[C@H](N)C(=O)N[C@@H](COCc1ccccc1)C(=O)OCC#CI [Compound 19, L-alanyl-O-benzyl-L-serine iodopropargyl ester trifluoroacetate]
- MIC [1]: < 0.8 µg/mL
- inhibition of growth at 1.5 ppm ([2]; 1.5 ppm): 0%
- inhibition of growth at 3 ppm ([2]; 3 ppm): 50%
- inhibition of growth at 6 ppm ([2]; 6 ppm): 75%
- inhibition of growth at 25 ppm ([2]; 25 ppm): 100%
- inhibition of growth at 0.2 ppm ([2]; .2 ppm): 0%
- inhibition of growth at 0.4 ppm ([2]; .4 ppm): 0%
- inhibition of growth at 0.8 ppm ([2]; .8 ppm): 0%
- inhibition of growth [2]: 100%
- inhibition of growth at 1.5 ppm ([3]; 1.5 ppm, Table IVb, read-out: % Control at (ppm) indicated BOC): 0%
- inhibition of growth at 6 ppm ([3]; 6 ppm, Table IVb, read-out: % Control at (ppm) indicated BOC): 0%
- inhibition of growth at 25 ppm ([3]; Table IVa, *=Phytotoxic, read-out: % Control at 25 ppm BOC): 0%
- inhibition of growth at 25 ppm ([3]; Table IVb, read-out: % Control at (ppm) indicated BOC): 90%
- inhibition of growth at 0.2 ppm ([3]; .2 ppm, Table IVb, read-out: % Control at (ppm) indicated BOC): 0%
- inhibition of growth at 0.4 ppm ([3]; .4 ppm, Table IVb, read-out: % Control at (ppm) indicated BOC): 0%
- inhibition of growth at 0.8 ppm ([3]; .8 ppm, Table IVb, read-out: % Control at (ppm) indicated BOC): 0%
- inhibition of growth at 1.5 ppm ([4]; 1.5 ppm): 0%
- inhibition of growth at 3 ppm ([4]; 3 ppm): 0%
- inhibition of growth at 6 ppm ([4]; 6 ppm): 0%
- inhibition of growth at 0.2 ppm ([4]; .2 ppm): 0%
- inhibition of growth at 0.4 ppm ([4]; .4 ppm): 0%
- inhibition of growth at 0.8 ppm ([4]; .8 ppm): 0%
- inhibition of growth [4]: 0%
- inhibition of growth at 1.5 ppm ([5]; 1.5 ppm): 50%
- inhibition of growth at 6 ppm ([5]; 6 ppm): 100%
- inhibition of growth at 25 ppm ([5]; 25 ppm): 100%
- inhibition of growth at 0.2 ppm ([5]; .2 ppm): 0%
- inhibition of growth at 0.4 ppm ([5]; .4 ppm): 0%
- inhibition of growth at 0.8 ppm ([5]; .8 ppm): 0%
- inhibition of growth at 1.5 ppm ([6]; 1.5 ppm, read-out: % Control at (ppm) indicated PIR): 0%
- inhibition of growth at 6 ppm ([6]; 6 ppm, read-out: % Control at (ppm) indicated PIR): 0%
- inhibition of growth at 25 ppm ([6]; 25 ppm, read-out: % Control at (ppm) indicated PIR): 100%
- inhibition of growth at 0.2 ppm ([6]; .2 ppm, read-out: % Control at (ppm) indicated PIR): 0%
- inhibition of growth at 0.4 ppm ([6]; .4 ppm, read-out: % Control at (ppm) indicated PIR): 0%
- inhibition of growth at 0.8 ppm ([6]; .8 ppm, read-out: % Control at (ppm) indicated PIR): 0%
- inhibition of growth at 25 ppm ([6]; read-out: % Control at 25 ppm PIR): 100%
- inhibition of growth at 1.5 ppm ([7]; 1.5 ppm): 50%
- inhibition of growth at 6 ppm ([7]; 6 ppm): 100%
- inhibition of growth at 0.2 ppm ([7]; .2 ppm): 0%
- inhibition of growth at 0.4 ppm ([7]; .4 ppm): 0%
- inhibition of growth at 0.8 ppm ([7]; .8 ppm): 0%
- inhibition of growth at 1.5 ppm ([8]; 1.5 ppm, Table IVb, read-out: % Control at (ppm) indicated PYU): 0%
- inhibition of growth at 6 ppm ([8]; 6 ppm, Table IVb, read-out: % Control at (ppm) indicated PYU): 0%
- inhibition of growth at 25 ppm ([8]; Table IVa, read-out: % Control at 25 ppm PYU): 100%
- inhibition of growth at 25 ppm ([8]; Table IVb, read-out: % Control at (ppm) indicated PYU): 100%
- inhibition of growth at 0.2 ppm ([8]; .2 ppm, Table IVb, read-out: % Control at (ppm) indicated PYU): 0%
- inhibition of growth at 0.4 ppm ([8]; .4 ppm, Table IVb, read-out: % Control at (ppm) indicated PYU): 0%
- inhibition of growth at 0.8 ppm ([8]; .8 ppm, Table IVb, read-out: % Control at (ppm) indicated PYU): 0%
- inhibition of growth at 1.5 ppm ([9]; 1.5 ppm, Table IVb, read-out: % Control at (ppm) indicated SEP): 50%
- inhibition of growth at 6 ppm ([9]; 6 ppm, Table IVb, read-out: % Control at (ppm) indicated SEP): 100%
- inhibition of growth at 25 ppm ([9]; Table IVa, read-out: % Control at 25 ppm SEP): 100%
- inhibition of growth at 25 ppm ([9]; Table IVb, read-out: % Control at (ppm) indicated SEP): 100%
- inhibition of growth at 0.2 ppm ([9]; .2 ppm, Table IVb, read-out: % Control at (ppm) indicated SEP): 0%
- inhibition of growth at 0.4 ppm ([9]; .4 ppm, Table IVb, read-out: % Control at (ppm) indicated SEP): 0%
- inhibition of growth at 0.8 ppm ([9]; .8 ppm, Table IVb, read-out: % Control at (ppm) indicated SEP): 0%
- inhibition of growth at 1.5 ppm ([10]; 1.5 ppm, Table IVb, read-out: % Control at (ppm) indicated XAN): 0%
- inhibition of growth at 3 ppm ([10]; 3 ppm, Table IVb, read-out: % Control at (ppm) indicated XAN): 0%
- inhibition of growth at 6 ppm ([10]; 6 ppm, Table IVb, read-out: % Control at (ppm) indicated XAN): 0%
- inhibition of growth at 25 ppm ([10]; Table IVa, read-out: % Control at 25 ppm XAN): 0%
- inhibition of growth at 25 ppm [10, 14]: 0%
- inhibition of growth at 0.2 ppm ([10]; .2 ppm, Table IVb, read-out: % Control at (ppm) indicated XAN): 0%
- inhibition of growth at 0.4 ppm ([10]; .4 ppm, Table IVb, read-out: % Control at (ppm) indicated XAN): 0%
- inhibition of growth at 0.8 ppm ([10]; .8 ppm, Table IVb, read-out: % Control at (ppm) indicated XAN): 0%
- inhibition of growth [10, 14]: 0%
- MIC ([11]; Aspergillus niger, pH 5, read-out: MIC ANIG, Aspergillus niger, serial dilutions from 50 ppm, read after 8 days of incubation): 50 µg/mL
- MIC ([11]; Aureobasidium pullulans, pH 5, read-out: MIC APUL, Aureobasidium pullulans, serial dilutions from 50 ppm, read after 8 days of incubation): 50 µg/mL
- MIC ([11]; Gloeophyllum trabeum, pH 5, read-out: MIC GTRA, Gloeophyllum trabeum, serial dilutions from 50 ppm, read after 8 days of incubation): 50 µg/mL
- MIC [12]: 100 µg/mL
- MIC [13]: 100 µg/mL
